Source: US5565462A, “Composition for topical treatment of psoriasis and atopic dermatitis comprising a xanthine derivative” (Teva Pharmaceutical Industries, Ltd., priority 1991, dated 1996)

Columns and labels:
[1] = tested on: human psoriatic skin transplants; assay: Topical treatment of human psoriatic skin transplanted to nude mice (epidermal thickness / acanthosis); format: in vivo, human skin on outbred Balb/C nude mice
Excerpt: Human psoriatic skin from psoriatic patients was transplanted to nude mice essentially according to the method of G. Kreuger et al., Prog. in Dermatol. […] The donors had stable plaque type psoriasis for at least one year preceding biopsy and had not received systemic anti-psoriatic therapy for the 4 weeks preceding biopsy. They had also not received topical therapy or U.V. therapy for the two weeks preceding biopsy. […] In this method the area (A) of the psoriasis in four main body parts (head (H), trunk (T), upper extremities (U) and lower extremities (L)) is assigned a value from 0-6 depending on the extent of psoriasis where O reflects no involvement and 6 reflects 90-100% involvement. The severity of the lesion is assessed based on three parameters: Erythema (E), Desquamation (scaling) (D) and Infiltration (I). The severity of each of these parameters is measured on a scale of 0-4 where 0 is no involvement and 4 is very sever. The total severity score is calculated according to the following formula: […]
Split thickness biopsies of nonpustular psoriatic human tissue, 4×5 cm and 0.4 mm thick were obtained from the edge of established plaques from various donor patients. […] The grafts were allowed to heal for one week prior to topical application of the test preparations.
Outbred Balb/C nude mice, 2 to 3 months of age were used in this study. The mice were obtained from the pathogen free animal breeding facility at the University of Tel Aviv (Israel) and were raised in the pathogen-free animal facility at the Faculty of Medicine, Technion-Israel Institute of Technology, Haifa, Israel.
On the day following the end of treatment the severity of the psoriatic lesion was assessed and then the animals were sacrificed and the entire graft was excised and divided into two equal sections. One section was used to assess changes in the rate of proliferation by autoradiography (tritiated thymidine incorporation) while the other section was sectioned for microscopic histological assessment, including acanthosis and parakeratosis.
In another series of experiments, human psoriatic skin of various severities was transplanted on each of 28 nude mice. The graft area was treated with various preparations as described above.
The treatments were applied as creams and were administered as described above.

[2] = tested on: human psoriatic fibroblasts; assay: Inhibition of human psoriatic fibroblast proliferation; format: cell-based; details: Homo sapiens, Fibroblast
Protocol: PTX and PPF, alone as well as PTX in combination with other drugs were tested.
Human psoriatic fibroblasts were obtained from skin biopsies of 5 individuals with plaque psoriasis. Cells in the 3-7th passages were used for the experiments. Human psoriatic fibroblasts (4×10^3 -6×10^3 cells) were added in 24-well plates and cultured in Dulbecco's Modified Eagle's Medium (DMEM) supplemented with 10% fetal calf serum, 2 mM L-glutamine, 100 u/ml penicillin, 100 μg/ml streptomycin (DMEM+) at 5% CO2 and 95% humidity at 37° C.
After 3 days, medium was replaced with fresh DMEM+(control) or with medium containing various concentrations of compounds alone or in combination with pentoxifylline and incubation was continued for additional 3 days. Stock solutions (10^-1 -10^-2 M) of the compounds tested were made in ethanol. For these compounds special control (DMEM+ with 1% ethanol) was made. The compounds tested together with pentoxifylline were 3-heptanone, 3,3-dimethylbutyric acid, lipoic acid, 1,25-dihydroxyvitamin D3 betamethasone dipropionate and hydrocortisone-17-butyrate.
On the last day of experiments, the medium was aspirated and the cells were obtained by trypsinization. The number of cells in each well was counted by the use of an hemocytometer.
The percentage of inhibition of fibroblast proliferation was calculated according to the formula: [formula] and the results are shown in Tables 3 and 4.

[3] = tested on: human peripheral blood mononuclear cells (lymphocytes); assay: Inhibition of the mitogenic (PHA) stimulation of human lymphocytes (PBMC), [3H]thymidine; format: cell-based
Protocol: Buffy coats from the Beilinson Medical Center Blood Bank or 20 mL samples of heparinized venous blood from healthy or atopic donors were used as a source for human peripheral blood mononuclear (PBM) cells. PBM cells were separated by Ficoll-Hypaque density gradient centrifugation. […] The nonadhering cells were stirred gently and carefully collected.
PHA (1 μg/mL), indomethacin (5 μg/mL) and various xanthine derivatives were added at initiation of culture. Indomethacin was dissolved in ethanol. […] [methyl-^3 H]Thymidine (1 μCi/well) was added at 68 h, and the cells were harvested 4 h later using an automated cell harvester (Dynatech, Alexandria, Va.). Unless otherwise stated, all cultures were performed in triplicate.

psoriasis lesions = assay: Clinical trial in psoriasis, 2% pentoxifylline cream vs placebo, right-left comparison, PASI; format: in vivo, human patients; details: for decrease in PASI: 2% cream twice daily
Protocol: A clinical trial was performed comparing a cream composition of 2% pentoxifylline (formulation A of Example 1) to placebo. The trial was randomized, double blind, placebo controlled, right-left comparison within patient design.
Two similar plaque areas of psoriasis (i.e. both legs or forearms), were selected for treatment in each patient. In each patient one area on one side of the body was treated with 2% pentoxifylline formulated as in Example 1 and the other area on the other side of the body was treated with placebo cream formulated identically but without the pentoxifylline. The cream (formulation A in Example 1) was applied by the patient twice daily.
Patients stopped all forms of topical psoriatic treatment two weeks before entry into the study.
Systemic psoriatic treatments and phototherapy were stopped one month before entry into the study.
The dermatological assessment was performed as follows. The dermatologist measured the area of the lesion in cm^2. The severity of each lesion was evaluated by grading erythema, scaling and thickness on a 0-4 scale where 0=none, 1=slight, 2=moderate, 3=severe and 4=exceptionally severe.
Based on these measurements the Psoriasis Area Severity Index (PASI) was calculated for each of the 2 lesions on each patient as follows:
PASI=Area x (Erythema+Thickness+Scaling)

atopic dermatitis = assay: Clinical trial in atopic dermatitis, 2% pentoxifylline cream vs vehicle, bilateral comparison; format: in vivo, human patients; details: 2% cream twice a day, four weeks, seven patients aged 3-10 years
Protocol: A randomized double blind, vehicle controlled, bilateral comparison study was performed, to determine the effect of pentoxifylline (PTX) in the treatment of atopic dermatitis. The study medication contained 2% pentoxifylline in an oil-in-water cream vehicle, and the control treatment consisted of the same vehicle without the pentoxifylline. The exact formulations appear in Table 7.
Seven patients (aged 3-10 years) were enrolled in the trial and evaluated for pruritus, erythema, dryness/scaling and exudate. Pentoxifylline cream, or the placebo (the identical cream, but without the pentoxifylline) were dispensed in identical tubes that were marked for application to right and left sides. Patients were instructed to apply medication twice a day (morning and evening) for four weeks.

CC(=O)CCCCn1c(=O)c2c(ncn2C)n(C)c1=O [Pentoxifylline, 3,7-dimethyl-1-(5-oxohexyl)-xanthine]
% Improvement (Decrease in Thickness) ([1]; 2% PTX cream, 7 days, donor patient 3 (PASI 7.6)): 40% | % Improvement (Decrease in Thickness) ([1]; 2% PTX cream, 7 days, donor patient 4 (PASI 17.6)): 22% | % Improvement (Decrease in Thickness) ([1]; 2% PTX cream, 7 days, donor patient 6 (PASI 3.8), placebo 0): 30% | Average Improvement (decrease in epidermal thickness) ([1]; 2% PTX cream, 7 days, placebo 5%): 31% | Epidermal Thickness (Acanthosis) after 7 days treatment ([1]; 2% PTX cream, donor patient 3 (PASI 7.6), before treatment 46 μm): 28 μm | Epidermal Thickness (Acanthosis) after 7 days treatment ([1]; 2% PTX cream, donor patient 4 (PASI 17.6), before treatment 54 μm): 42 μm | Epidermal Thickness (Acanthosis) after 7 days treatment ([1]; 2% PTX cream, donor patient 6 (PASI 3.8), before treatment 55 μm): 39 μm | SUCCESS RATIO (decrease of at least 15% in epidermal thickness) ([1]; 2% pentoxifylline cream (Example 1A), 7 days topical, placebo 0/6): 6/10 | effectiveness in treating psoriasis (in words) ([1]; experiment of Table 1, transplanted skin): almost as effective as steroids in treating psoriasis and far more effective than dyphylline | effectiveness in treating psoriasis (in words) ([1]; experiment of Table 2, 28 nude mice): almost as effective as topical steroids in treating psoriasis and far more effective than dyphylline | effectiveness in the treatment of psoriasis (in words) ([1]; summary of the animal model experiments): effective in the treatment of psoriasis | inhibition at 1000 µM ([2]; PTX alone, 10^-3 M, Table 3): 16.9% | inhibition at 100 µM ([2]; compound alone, 10^-4 M, Table 4): 5.9% | inhibition at 1000 µM ([3]; Homo sapiens, Lymphocyte, 1 × 10^-3 M, lymphocytes from healthy volunteers, read-out: net inhibitory effect on the mitogenic stimulation of human lymphocytes): 70% | inhibition at 300 µM ([3]; Homo sapiens, Lymphocyte, 3 × 10^-4 M, lymphocytes from healthy volunteers, read-out: net inhibitory effect on the mitogenic stimulation of human lymphocytes): 46% | inhibition of the mitogenic stimulation compared with the other xanthine derivatives (in words) ([3]; vs theophylline and diphylline, healthy volunteers): inhibited the mitogenic stimulation to a far greater effect than the other xanthine derivatives | decrease in PASI (psoriasis lesions; Patient 1, 1.5 weeks, placebo side 0%): 58% | decrease in PASI (psoriasis lesions; Patient 2, 2 weeks, placebo side 34%): 53% | decrease in PASI (psoriasis lesions; Patient 3, 2 weeks, placebo side 45%): 73% | decrease in PASI (psoriasis lesions; Patient 3, 6 weeks, placebo side 56%): 90% | decrease in PASI (psoriasis lesions; Patient 4, 6 weeks, placebo side 73%): 91% | decrease in PASI (psoriasis lesions; Patient 4, 8 weeks, placebo side 57%): 88% | decrease in PASI (psoriasis lesions; Patient 5, 2 weeks, placebo side 25%): 73% | effectiveness in the treatment of psoriatic lesions (in words) (psoriasis lesions; topical, summary of clinical trials): very effective therapeutic for the treatment of psoriatic lesions | improvement of pruritus, erythema, dryness/scaling and exudate (in words) (atopic dermatitis): significantly improved each of the four symptoms evaluated
